# Measured values from paper PMC11605156, “Triterpenoids from Ganoderma lucidum inhibit cytochrome P450 enzymes interfering with the metabolic process of specific clinical drugs” (Frontiers in Pharmacology, 2024).
# Key:
# [1] = in vivo; conditions: male, SD, rat, in vivo
# Protocol: SD rats (Male, weighing 220 g ± 20 g) were divided into a dichloromethane administration group and a control group with 6 rats in each group. Both groups were given probe substrate drugs by gavage. […] 200 μL blood samples were taken from the rat jugular vein at 0.167, 0.333, 0.5, 0.75, 1, 2, 3, 4, 6, 8, 10, and 12 h after the administration of the probe substrate. After precipitation of proteins by with 600 μL acetonitrile via centrifugation […] at 4°C at 3,500 rpm for 10 min. The supernatant was detected using liquid chromatography-tandem mass spectrometry (LC-MS/MS). The mass spectrometry information of the probe drug is shown in Supplementary Table S3. Animal experiments in this study were approved by the Animal Ethics Committee of the Dalian Medical University.
# [2] = target: T1, CYP1A2 (Homo sapiens, UniProt P05177); assay: CYP1A2 inhibition, probe/drug metabolism in human liver microsomes (LC-MS/MS); conditions: for activity at 30 min: human, human liver microsomes, pH 7.4, probe phenacetin 40 μM, Residual activity (%) CYP1A2, HLM 0.5 mg/mL, phenacetin 40 μM
# T1 sequence (P05177 1-516): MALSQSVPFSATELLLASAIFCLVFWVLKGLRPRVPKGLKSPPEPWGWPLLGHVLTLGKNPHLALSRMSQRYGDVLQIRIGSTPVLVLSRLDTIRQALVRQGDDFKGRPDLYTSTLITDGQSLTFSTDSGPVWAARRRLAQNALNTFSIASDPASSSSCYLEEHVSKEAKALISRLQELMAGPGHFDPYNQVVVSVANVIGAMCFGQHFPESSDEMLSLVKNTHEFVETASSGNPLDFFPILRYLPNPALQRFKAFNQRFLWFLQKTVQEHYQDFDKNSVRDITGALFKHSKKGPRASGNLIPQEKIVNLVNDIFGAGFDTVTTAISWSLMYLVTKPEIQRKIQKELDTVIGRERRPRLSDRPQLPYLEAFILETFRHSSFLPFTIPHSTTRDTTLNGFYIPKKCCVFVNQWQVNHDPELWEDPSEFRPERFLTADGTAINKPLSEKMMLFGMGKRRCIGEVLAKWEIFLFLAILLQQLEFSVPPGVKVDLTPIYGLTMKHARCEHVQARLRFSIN
# Protocol: (§1) The total volume of the in vitro metabolic incubation system is 200 μL. The probe substrate concentration in the system is shown in Supplementary Table S1. […] The reaction sample was preheated in a constant temperature mixer at 37°C. Then NADP^+ was added to the system to initiate the reaction. The reaction time is 30 min, and 100 μL acetonitrile will be added on time to quickly terminate the reaction, followed by centrifugation at 4°C and 20,000 g for 20 min. The supernatant was analyzed using liquid chromatography tandem mass spectrometry (LC-MS/MS), and the activity of CYP enzymes was evaluated by the generation of probe metabolites. The mass spectrometry information of probe substrates is shown in Supplementary Table S3.
# (§2) The isolated triterpenoids (1–66) were used to establish a compounds library. The inhibitory effects of 66 triterpenoids from G. lucidum on seven subtypes of CYP enzymes (CYP1A2, 2A6, 2D6, 2B6, 2C9, 2C19, 3A4) were evaluated followed the above-mentioned experimental procedures.
# (§3) For 16 clinical drugs metabolized by CYP enzymes, potential DDI studies were conducted on triterpenoids (6, 25) of G. lucidum, and IC50 values were measured.
# (§4) Clinical drugs: Phenacetin, melatonin, clozapine and riluzole are metabolized by CYP1A2. Bupropion, artemisinin, efavirenz and sertraline are metabolized by CYP2B6. Diclofenac, valsartan, glimepiride and glibenclamide are metabolized by CYP2C9. Midazolam, imatinib, simvastatin and diltiazem are metabolized by CYP3A4.
# (§5) Table S1. The information of probes for CYPs activity assay
# (§6) Table S2. Information of clinical drugs
# [3] = target: CYP2D6 (Homo sapiens, UniProt P10635); assay: CYP2D6 inhibition, dextromethorphan probe in human liver microsomes; conditions: human, human liver microsomes, pH 7.4, probe dextromethorphan 5 μM, Residual activity (%) CYP2D6, HLM 0.5 mg/mL
# Protocol: as §1, §2, §5
# [4] = target: CYP3A4 (Homo sapiens, UniProt P08684); assay: CYP3A4 inhibition, probe/drug metabolism in human liver microsomes; conditions: human, human liver microsomes, pH 7.4, probe midazolam 5 μM, Residual activity (%) CYP3A4, HLM 0.5 mg/mL, midazolam 5 μM, 30 min
# Protocol: as §1, §2, §3, §4, §5, §6
# [5] = target: T2, CYP2A6 (Homo sapiens, UniProt P11509); assay: CYP2A6 inhibition, coumarin probe in human liver microsomes; conditions: human, human liver microsomes, pH 7.4, probe coumarin 2 μM, Residual activity (%) CYP2A6, HLM 0.5 mg/mL
# T2 sequence (P11509 1-494): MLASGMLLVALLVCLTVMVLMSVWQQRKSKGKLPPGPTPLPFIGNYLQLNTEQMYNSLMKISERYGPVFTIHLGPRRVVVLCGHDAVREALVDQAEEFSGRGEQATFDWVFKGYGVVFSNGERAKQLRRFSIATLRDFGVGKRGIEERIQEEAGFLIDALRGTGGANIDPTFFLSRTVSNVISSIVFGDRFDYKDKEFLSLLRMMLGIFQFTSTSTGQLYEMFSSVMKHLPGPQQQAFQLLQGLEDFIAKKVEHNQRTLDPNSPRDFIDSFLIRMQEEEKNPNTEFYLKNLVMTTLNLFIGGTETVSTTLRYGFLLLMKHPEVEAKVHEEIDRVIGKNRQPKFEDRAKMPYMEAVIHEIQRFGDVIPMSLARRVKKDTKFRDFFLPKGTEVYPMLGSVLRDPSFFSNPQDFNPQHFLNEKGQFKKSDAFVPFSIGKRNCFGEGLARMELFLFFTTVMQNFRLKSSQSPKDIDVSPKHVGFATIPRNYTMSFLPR
# Protocol: as §1, §2, §5
# [6] = target: T3, CYP2B6 (Homo sapiens, UniProt P20813); assay: CYP2B6 inhibition, probe/drug metabolism in human liver microsomes; conditions: human, human liver microsomes, pH 7.4, probe bupropion 75 μM, Residual activity (%) CYP2B6, HLM 0.5 mg/mL, bupropion 75 μM, 30 min
# T3 sequence (P20813 1-491): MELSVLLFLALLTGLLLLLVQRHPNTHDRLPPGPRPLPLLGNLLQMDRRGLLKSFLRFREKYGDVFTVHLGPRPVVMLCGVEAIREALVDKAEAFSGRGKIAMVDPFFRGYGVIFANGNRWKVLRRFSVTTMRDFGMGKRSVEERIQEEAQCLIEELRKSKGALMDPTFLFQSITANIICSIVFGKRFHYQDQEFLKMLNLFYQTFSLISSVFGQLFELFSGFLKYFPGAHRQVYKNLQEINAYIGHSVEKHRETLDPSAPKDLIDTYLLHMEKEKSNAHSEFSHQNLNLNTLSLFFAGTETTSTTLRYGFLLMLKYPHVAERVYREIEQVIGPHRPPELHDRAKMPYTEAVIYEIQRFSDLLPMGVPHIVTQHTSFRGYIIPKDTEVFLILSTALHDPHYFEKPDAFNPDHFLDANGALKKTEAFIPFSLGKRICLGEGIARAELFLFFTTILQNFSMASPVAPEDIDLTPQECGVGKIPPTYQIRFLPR
# Protocol: as §1, §2, §3, §4, §5, §6
# [7] = target: CYP2C9 (Homo sapiens, UniProt P11712); assay: CYP2C9 inhibition, probe/drug metabolism in human liver microsomes; conditions: human, human liver microsomes, pH 7.4, probe diclofenac 4 μM, Residual activity (%) CYP2C9, HLM 0.5 mg/mL, diclofenac 4 μM, 30 min
# Protocol: as §1, §2, §3, §4, §5, §6
# [8] = target: CYP2C19 (Homo sapiens, UniProt P33261); assay: CYP2C19 inhibition, S-mephenytoin probe in human liver microsomes; conditions: human, human liver microsomes, pH 7.4, probe S-mephenytoin 50 μM, Residual activity (%) CYP2C19, HLM 0.5 mg/mL, S-mephenytoin 50 μM, 30 min
# Protocol: as §1, §2, §5
# [9] = IC50 against CYP 1A2, substrate phenacetin 40 μM, HLM
# Chain of CYP2C9 (P11712 whole entry): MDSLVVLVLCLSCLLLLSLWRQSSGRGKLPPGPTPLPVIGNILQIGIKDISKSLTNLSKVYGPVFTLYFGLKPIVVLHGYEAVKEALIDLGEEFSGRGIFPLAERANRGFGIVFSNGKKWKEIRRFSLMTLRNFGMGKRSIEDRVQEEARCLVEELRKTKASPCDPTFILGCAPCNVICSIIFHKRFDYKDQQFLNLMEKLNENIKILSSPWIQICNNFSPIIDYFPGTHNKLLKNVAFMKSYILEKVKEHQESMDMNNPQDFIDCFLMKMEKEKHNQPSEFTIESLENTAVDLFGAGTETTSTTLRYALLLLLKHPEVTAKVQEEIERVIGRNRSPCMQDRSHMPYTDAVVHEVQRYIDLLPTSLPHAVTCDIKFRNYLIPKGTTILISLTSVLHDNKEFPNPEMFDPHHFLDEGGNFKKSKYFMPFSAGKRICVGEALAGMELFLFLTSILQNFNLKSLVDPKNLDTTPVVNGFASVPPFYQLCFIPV
# Chain of CYP2D6 (P10635 whole entry): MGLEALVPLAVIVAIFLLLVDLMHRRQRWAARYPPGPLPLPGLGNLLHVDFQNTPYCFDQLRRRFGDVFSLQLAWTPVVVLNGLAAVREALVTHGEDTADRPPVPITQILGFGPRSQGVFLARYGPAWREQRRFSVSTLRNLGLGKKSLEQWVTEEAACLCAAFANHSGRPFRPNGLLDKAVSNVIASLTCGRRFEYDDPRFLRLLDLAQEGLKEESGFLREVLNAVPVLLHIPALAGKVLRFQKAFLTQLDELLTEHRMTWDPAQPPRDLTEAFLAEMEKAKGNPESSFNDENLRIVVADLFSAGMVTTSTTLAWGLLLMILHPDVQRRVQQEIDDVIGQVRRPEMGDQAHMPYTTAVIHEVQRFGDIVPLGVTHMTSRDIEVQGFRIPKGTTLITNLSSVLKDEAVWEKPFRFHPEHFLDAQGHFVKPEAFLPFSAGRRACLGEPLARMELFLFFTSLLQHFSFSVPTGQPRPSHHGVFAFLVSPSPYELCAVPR
# Chain of CYP3A4 (P08684 whole entry): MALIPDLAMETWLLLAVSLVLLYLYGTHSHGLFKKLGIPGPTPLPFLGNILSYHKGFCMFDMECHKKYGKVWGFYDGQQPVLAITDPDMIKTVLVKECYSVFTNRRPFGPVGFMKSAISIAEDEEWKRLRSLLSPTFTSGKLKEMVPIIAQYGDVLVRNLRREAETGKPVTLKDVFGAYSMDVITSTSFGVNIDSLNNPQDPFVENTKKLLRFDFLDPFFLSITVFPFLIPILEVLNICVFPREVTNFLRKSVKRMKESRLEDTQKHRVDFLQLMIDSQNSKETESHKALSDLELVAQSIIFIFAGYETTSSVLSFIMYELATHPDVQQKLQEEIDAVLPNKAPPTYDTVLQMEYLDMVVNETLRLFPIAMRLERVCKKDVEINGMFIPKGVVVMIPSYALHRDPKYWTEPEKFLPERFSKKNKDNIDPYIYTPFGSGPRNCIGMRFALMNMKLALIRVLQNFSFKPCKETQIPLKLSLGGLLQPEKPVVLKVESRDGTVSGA
# Chain of CYP2C19 (P33261 whole entry): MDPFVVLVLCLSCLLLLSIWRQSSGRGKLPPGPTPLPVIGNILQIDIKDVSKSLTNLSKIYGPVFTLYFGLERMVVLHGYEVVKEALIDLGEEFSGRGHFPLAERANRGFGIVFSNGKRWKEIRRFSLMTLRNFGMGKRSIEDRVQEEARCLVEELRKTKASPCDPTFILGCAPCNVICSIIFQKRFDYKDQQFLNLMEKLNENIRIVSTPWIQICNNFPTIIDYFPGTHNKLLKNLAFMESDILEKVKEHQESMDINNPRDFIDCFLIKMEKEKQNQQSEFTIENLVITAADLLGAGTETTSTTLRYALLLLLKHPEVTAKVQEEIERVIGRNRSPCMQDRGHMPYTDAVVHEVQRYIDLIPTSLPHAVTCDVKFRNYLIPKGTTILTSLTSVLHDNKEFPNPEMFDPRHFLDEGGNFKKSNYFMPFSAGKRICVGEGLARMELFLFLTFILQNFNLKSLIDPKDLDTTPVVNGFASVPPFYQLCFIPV
Structure (SMILES),AUM [1],Cl_F_ [1],AUC(0-inf) ([1]; po) [ng·h/mL],AUC(0-t) ([1]; po) [ng·h/mL],Cmax ([1]; po) [ng/mL],Tmax ([1]; po) [min],Vz_F ([1]; po),"IC50 [2, 9] [µM]",activity at 30 min ([2]; 30 min) [%],activity at 30 min [3] [%],activity at 30 min [4] [%],activity at 30 min [5] [%],activity at 30 min [6] [%],activity at 30 min [7] [%],activity at 30 min [8] [%],"IC50 ([2]; IC50 against metabolism of clozapine mediated by CYP1A2, substrate clozapine 10 μM, 20 min) [µM]","IC50 ([2]; IC50 against metabolism of melatonin mediated by CYP1A2, substrate melatonin 5 μM, 30 min) [µM]","IC50 ([2]; IC50 against metabolism of riluzole mediated by CYP1A2, substrate riluzole 5 μM, 60 min) [µM]","IC50 ([2]; IC50 values, metabolism of four drugs mediated by CYP 1A2, range over phenacetin, riluzole, clozapine, melatonin) [µM]"
"CC(NC(C)(C)C)C(=O)c1cccc(Cl)c1 (stereo not drawn) [Bup, bupropion]","15,378.075 ± 3,089.500 h*ng/mL","3,954.386 ± 375.228 mL/h/kg",5090,4950,1890 ± 154,25 ± 7.74,"10,405.594 ± 1,602.189 mL/kg",,,,,,,,,,,,
CC(=CC(=O)CC(C)C(=O)O)C1CC(=O)C2(C)C3=C(C(=O)CC12C)C1(C)CCC(=O)C(C)(CO)C1CC3O (stereo not drawn) [Compound 1],,,,,,,,10.1 ± 0.23,29.1 ± 1.9,82.4 ± 1.5,84.3 ± 7.26,79.5 ± 3.07,86.9 ± 5.76,91.82 ± 0.87,65 ± 6,,,,
CC(CC(=O)CC(C)C1CC(=O)C2(C)C3=C(C(=O)CC12C)C1(C)CCC(O)C(C)(CO)C1CC3O)C(=O)O (stereo not drawn) [Compound 2],,,,,,,,16 ± 4.05,35.4 ± 3.33,79.7 ± 8.99,79.6 ± 5.54,78.38 ± 0.16,79.86 ± 0.32,87.1 ± 3.47,62.77 ± 0.26,,,,
CC(CC(=O)CC(C)C1CC(=O)C2(C)C3=C(C(=O)C(O)C12C)C1(C)CCC(=O)C(C)(CO)C1CC3O)C(=O)O (stereo not drawn) [Compound 3],,,,,,,,14 ± 1.73,33 ± 4.08,76.5 ± 4.49,60.3 ± 3.06,79.9 ± 0.97,75.3 ± 4.16,87.3 ± 6.36,63.6 ± 7.83,,,,
CC(CC(=O)CC(C)C1CC(O)C2(C)C3=C(C(=O)CC12C)C1(C)CCC(O)C(C)(CO)C1CC3=O)C(=O)O (stereo not drawn) [Compound 4],,,,,,,,11.6 ± 1.02,29.1 ± 0.38,76.9 ± 6.89,67.6 ± 2.68,81.24 ± 0.65,97.5 ± 4.16,86.6 ± 1.3,57.82 ± 0.056,,,,
"CC(=CC(=O)CC(C)C(=O)O)C1CC(=O)C2(C)C3=C(C(=O)C(O)C12C)C1(C)CCC(=O)C(C)(CO)C1CC3O (stereo not drawn) [Compound 6, ganoderica F]",,,,,,,,9.62 ± 2.03,28 ± 1.5,66.7 ± 6.29,72.57 ± 0.19,75.3 ± 1.29,84.6 ± 5.76,90.5 ± 3.9,58.5 ± 8.25,12.9 ± 1.11,19 ± 1.68,14.8 ± 2.15,9.62 to 19
